Among the data in paper PMC12320230, “BAY11-7082 Targets RNF25 to Reverse TRIP4 Ubiquitination-dependent NF-κB Activation and Apoptosis Resistance in Renal Cell Carcinoma” (International Journal of Biological Sciences, 2025) are Kd values, retold here.

In the test the target is T1, RNF25 (Homo sapiens, UniProt Q96BH1).
T1 construct: His-RNF25 used in ubiquitination assay
T1 sequence (Q96BH1 1-459): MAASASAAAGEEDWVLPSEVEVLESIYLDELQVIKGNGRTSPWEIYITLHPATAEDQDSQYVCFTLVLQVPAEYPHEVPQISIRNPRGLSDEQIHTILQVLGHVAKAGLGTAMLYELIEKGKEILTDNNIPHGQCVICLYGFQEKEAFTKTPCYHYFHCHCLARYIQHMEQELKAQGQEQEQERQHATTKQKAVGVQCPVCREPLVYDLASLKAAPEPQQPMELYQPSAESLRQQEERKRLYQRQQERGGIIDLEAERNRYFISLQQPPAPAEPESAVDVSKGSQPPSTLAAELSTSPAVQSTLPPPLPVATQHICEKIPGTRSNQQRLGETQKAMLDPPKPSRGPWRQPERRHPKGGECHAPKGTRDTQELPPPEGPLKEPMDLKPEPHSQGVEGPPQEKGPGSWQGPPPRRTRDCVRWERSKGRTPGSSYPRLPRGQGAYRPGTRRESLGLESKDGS
Nature of the test: isothermal titration calorimetry. The test is classed as binding.

`Cc1ccc(S(=O)(=O)/C=C/C#N)cc1` [BAY11-7082] registered a Kd of 0.95 µM.
